Reference: PMC10454396 (International Journal of Molecular Sciences, 2023)
Read-outs that look alike come from different tables or passages of the source.

What was measured:
[1] = type: in vitro ADME; conditions: mouse plasma
Experimental: To determine stability in plasma, a similar setup as for the determination of metabolic stability was applied using pooled mouse, human or rat plasma (Neo Biotech, Nanterre, France). Samples were taken by mixing aliquots with four volumes of ice cold acetonitrile containing internal standard (12.5 nM diphenhydramine). The plasma stability of procain, propantheline and diltiazem were determined in parallel to confirm the enzymatic activity.

[2] = Phase I metabolic stability, mouse liver microsomes; type: in vitro ADME; conditions: pooled liver microsomes, pH 7.4
Experimental: (§1) For the evaluation of phase I metabolic stability, the compound (1 µM) was incubated with 0.5 mg/mL pooled mouse/rat liver microsomes (Xenotech, Kansas City, MO, USA) or human liver microsomes (Corning, NY, USA), 2 mM NADPH and 10 mM MgCl2 at pH 7.4 for 120 min at 37 °C. The metabolic stability of testosterone, verapamil and ketoconazole were determined in parallel to confirm the enzymatic activity of mouse/rat liver microsomes; for human liver microsomes testosterone, diclofenac and propranolol were used. The incubation was stopped after defined time points by precipitation of aliquots of the assay mixture with two volumes of ice-cold acetonitrile containing internal standard (15 nM diphenhydramine). Samples were stored on ice until the end of the incubation and precipitated protein was removed by centrifugation (15 min, 4 °C, 4000× g).

[3] = Phase I metabolic stability, rat liver microsomes; type: in vitro ADME; conditions: pooled liver microsomes, pH 7.4
Experimental: as §1

S. aureus = tested on: S. aureus; design: method as in unpublished data from GBF; conditions: former in vivo efficacy studies; ref unpublished data from GBF; cited from earlier work
[4] = Plasma protein binding (RED), mouse plasma; type: in vitro ADME; conditions: CD-1, mouse, pooled plasma, pH 7.4, mouse plasma
Experimental: Plasma protein binding was determined using the Rapid Equilibrium Dialysis (RED) system (Thermo Fisher Scientific, Waltham, MA, USA). The compound was diluted in pooled murine (CD-1)/human or Wistar rat plasma (Neo Biotech, Nanterre, France) to 10 µM and added to the respective chamber according to the manufacturer’s protocol, followed by addition of PBS pH 7.4 to the opposite chamber. Samples were taken immediately after addition to the plate as well as after 2, 4 and 5 h by mixing 10 µL with 80 µL ice-cold acetonitrile containing 12.5 nM diphenhydramine as internal standard, followed by addition of 10 µL plasma to samples taken from PBS and vice versa. Samples were stored on ice until the end of the incubation and precipitated protein was removed by centrifugation (15 min, 4 °C, 4000× g, 2 centrifugation steps). Concentration of the remaining test compound at the different time points was analyzed by HPLC-MS/MS (TSQ Altis Plus, Thermo Fisher, Dreieich, Germany). The amount of compound bound to protein was calculated using the equation PPB [%] = 100 − 100 × (amount in buffer chamber/amount in plasma chamber).

SMILES: C/C(=C\[C@H](C)CCCCC(=O)O)[C@@H]1O[C@@H]2C=C[C@H]1OC(=O)\C=C/C=C\C=C\[C@H]1O[C@@H]3C[C@H]1O[C@@H](/C=C/C[C@H]1O[C@H](C[C@H](O)[C@H]1C)[C@@H](O)[C@@H](O)/C=C/CC/C=C/C2)[C@@H]3C [sorangicin A]
- plasma concentration after 4 h incubation [1]: below the limit of detection
- microsomal CLint at 1 µM [2]: 557 ± 297 µL/min/mg
- microsomal CLint at 1 µM [3]: 239 ± 155 µL/min/mg
- protective effect in mouse models of S. aureus infection (S. aureus): failed to show a protective effect
- fraction unbound at 10 µM ([4]; 10 µM, read-out: PPB (converted)): 0.121
- fraction unbound at 10 µM ([4]; read-out: free fraction): > 0.1
